Activity calls are given as the source filed them. How the calls were made is not given here.
System: rodent carcinogenicity bioassays, tumor incidence
Experiment: CCRIS carcinogenicity studies
Conditions: Dose: 0, Dose: 0
Outline: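 NCI-built, expert-reviewed records of carcinogenicity and related test outcomes (mutagenicity, tumor promotion/inhibition) compiled from published and report sources, historical span 1985-2011, not updated.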

Cl/C=C/CCl
carcinogen call (Species: MOUSE, Strain/Sex: B6C3F1/FEMALE, Route: GAVAGE, 50, 100 MG/KG BODY WT (TELONE II) IN CORN OIL 3 D/WK FOR 104 WK, 50, 100 MG/KG BODY WT (TELONE II) IN CORN OIL 3 D/WK FOR 104 WK, Tumor Site: Type of Lesion: URINARY BLADDER: TRANSITIONAL CELL CARCINOMA, LUNG: ALVEOLAR/BRONCHIOLAR ADENOMA, ALVEOLAR/BRONCHIOLAR ADENOMA OR CARCIN): active; positive
carcinogen call (Species: MOUSE, Strain/Sex: B6C3F1/FEMALE, Route: INHALATION, 5, 20, 60 PPM TECHNICAL GRADE 6 HR/D 5 D/WK FOR 2 YR (STUDY DURATION: 2 YR), 5, 20, 60 PPM TECHNICAL GRADE 6 HR/D 5 D/WK FOR 2 YR (STUDY DURATION: 2 YR)): inactive; negative
carcinogen call (Species: MOUSE, Strain/Sex: B6C3F1/FEMALE, Route: ORAL, 2.5, 25, 50 MG/KG BW IN DIET FOR 104 WK (STUDY DURATION: 104 WK), 2.5, 25, 50 MG/KG BW IN DIET FOR 104 WK (STUDY DURATION: 104 WK)): inactive; negative
carcinogen call (Species: MOUSE, Strain/Sex: B6C3F1/MALE, Route: INHALATION, 5, 20, 60 PPM TECHNICAL GRADE 6 HR/D 5 D/WK FOR 2 YR (STUDY DURATION: 2 YR), 5, 20, 60 PPM TECHNICAL GRADE 6 HR/D 5 D/WK FOR 2 YR (STUDY DURATION: 2 YR), Tumor Site: Type of Lesion: LUNG: BRONCHIOALVEOLAR ADENOMA): active; positive
carcinogen call (Species: MOUSE, Strain/Sex: B6C3F1/MALE, Route: ORAL, 2.5, 25, 50 MG/KG BW IN DIET FOR 104 WK (STUDY DURATION: 104 WK), 2.5, 25, 50 MG/KG BW IN DIET FOR 104 WK (STUDY DURATION: 104 WK)): inactive; negative
carcinogen call (Species: RAT, Strain/Sex: F344/FEMALE, Route: GAVAGE, 25, 50 MG/KG BODY WT (TELONE II) IN CORN OIL 3 D/WK FOR 104 WK, 25, 50 MG/KG BODY WT (TELONE II) IN CORN OIL 3 D/WK FOR 104 WK, Tumor Site: Type of Lesion: FORESTOMACH: SQUAMOUS CELL PAPILLOMA): active; positive
carcinogen call (Species: RAT, Strain/Sex: F344/FEMALE, Route: INHALATION, 5, 20, 60 PPM TECHNICAL GRADE 6 HR/D 5 D/WK FOR 2 YR (STUDY DURATION: 2 YR), 5, 20, 60 PPM TECHNICAL GRADE 6 HR/D 5 D/WK FOR 2 YR (STUDY DURATION: 2 YR)): inactive; negative
carcinogen call (Species: RAT, Strain/Sex: F344/FEMALE, Route: ORAL, 2.5, 12.5, 25 MG/KG BW IN DIET FOR 104 WK (STUDY DURATION: 104 WK), 2.5, 12.5, 25 MG/KG BW IN DIET FOR 104 WK (STUDY DURATION: 104 WK), Tumor Site: Type of Lesion: LIVER: HEPATOCELLULAR ADENOMA): active; positive
carcinogen call (Species: RAT, Strain/Sex: F344/MALE, Route: GAVAGE, 25, 50 MG/KG BODY WT (TELONE II) IN CORN OIL 3 D/WK FOR 104 WK, 25, 50 MG/KG BODY WT (TELONE II) IN CORN OIL 3 D/WK FOR 104 WK, Tumor Site: Type of Lesion: FORESTOMACH: SQUAMOUS CELL PAPILLOMA, SQUAMOUS CELL PAPILLOMA OR CARCINOMA, LIVER: NEOPLASTIC NODULE, NEOPLASTIC NODULE): active; positive
carcinogen call (Species: RAT, Strain/Sex: F344/MALE, Route: INHALATION, 5, 20, 60 PPM TECHNICAL GRADE 6 HR/D 5 D/WK FOR 2 YR (STUDY DURATION: 2 YR), 5, 20, 60 PPM TECHNICAL GRADE 6 HR/D 5 D/WK FOR 2 YR (STUDY DURATION: 2 YR)): inactive; negative
carcinogen call (Species: RAT, Strain/Sex: F344/MALE, Route: ORAL, 2.5, 12.5, 25 MG/KG BW IN DIET FOR 104 WK (STUDY DURATION: 104 WK), 2.5, 12.5, 25 MG/KG BW IN DIET FOR 104 WK (STUDY DURATION: 104 WK), Tumor Site: Type of Lesion: LIVER: HEPATOCELLULAR ADENOMA): active; positive

O=C1C=CC(=O)C(c2ccccc2)=C1
carcinogen call (Species: MOUSE, Strain/Sex: CD-1/FEMALE, Route: DERMAL, 1 MG IN DMSO 5/D WK FOR 40 WK (STUDY DURATION: 40 WK)): inactive; negative
carcinogen call (Species: RAT, Strain/Sex: F344/FEMALE, Route: INTRAVESICULAR, 1% IN 0.2 ML SALINE 2/WK FOR 5 WK (STUDY DURATION: 36 WK)): inactive; negative

O=c1ccc(O)n[nH]1
carcinogen call (Species: Mouse, Strain/Sex: Charles River CD-1/Female (50/Group), Route: Oral, 189, 598, 1811 mg/kg/day of 90% maleic hydrazide potassium salt in diet for 98 wk, study duration 98 wk, 189, 598, 1811 mg/kg/day of 90% maleic hydrazide potassium salt in diet for 98 wk, study duration 98 wk): inactive; negative
carcinogen call (Species: Mouse, Strain/Sex: Charles River CD-1/Male (50/Group), Route: Oral, 157, 509, 1545 mg/kg/day of 90% maleic hydrazide potassium salt in diet for 98 wk, study duration 98 wk, 157, 509, 1545 mg/kg/day of 90% maleic hydrazide potassium salt in diet for 98 wk, study duration 98 wk): inactive; negative
carcinogen call (Species: Rat, Strain/Sex: Sprague-Dawley/Female (50/Group), Route: Oral, 25, 500, 1000 mg/kg/day of 72.5-73.8% as maleic hydrazide in diet for 104 wk, study duration 104 wk, 25, 500, 1000 mg/kg/day of 72.5-73.8% as maleic hydrazide in diet for 104 wk, study duration 104 wk): inactive; negative
carcinogen call (Species: Rat, Strain/Sex: Sprague-Dawley/Male (50/Group), Route: Oral, 25, 500, 1000 mg/kg/day of 72.5-73.8% as maleic hydrazide in diet for 104 wk, study duration 104 wk, 25, 500, 1000 mg/kg/day of 72.5-73.8% as maleic hydrazide in diet for 104 wk, study duration 104 wk): inactive; negative

CC(O)c1ccccc1 (stereo unspecified)
carcinogen call (Species: MOUSE, Strain/Sex: B6C3F1/FEMALE, Route: GAVAGE, 375, 750 MG/KG IN CORN OIL 5 D/WK FOR 103 WK (STUDY DURATION: 104 WK), 375, 750 MG/KG IN CORN OIL 5 D/WK FOR 103 WK (STUDY DURATION: 104 WK)): inactive; negative
carcinogen call (Species: MOUSE, Strain/Sex: B6C3F1/MALE, Route: GAVAGE, 375, 750 MG/KG IN CORN OIL 5 D/WK FOR 103 WK (STUDY DURATION: 104 WK), 375, 750 MG/KG IN CORN OIL 5 D/WK FOR 103 WK (STUDY DURATION: 104 WK)): inactive; negative
carcinogen call (Species: RAT, Strain/Sex: F344/FEMALE, Route: GAVAGE, 375, 750 MG/KG IN CORN OIL 5 D/WK FOR 103 WK (STUDY DURATION: 105 WK), 375, 750 MG/KG IN CORN OIL 5 D/WK FOR 103 WK (STUDY DURATION: 105 WK)): inactive; negative
carcinogen call (Species: RAT, Strain/Sex: F344/MALE, Route: GAVAGE, 375, 750 MG/KG IN CORN OIL 5 D/WK FOR 103 WK (STUDY DURATION: 105 WK), 375, 750 MG/KG IN CORN OIL 5 D/WK FOR 103 WK (STUDY DURATION: 105 WK), Tumor Site: Type of Lesion: KIDNEY: TUBULAR CELL ADENOMA, TUBULAR CELL ADENOMA OR ADENOCARCINOMA): active; positive
